# Data as given in patent publication US12195706B2, “Formation of arrays of planar intestinal crypts possessing a stem/proliferative cell compartment and differentiated cell zone” (THE UNIVERSITY OF NORTH CAROLINA AT CHAPEL HILL, priority 2018, dated 2025).
# Assays:
# [1] = test system: mouse intestinal epithelial cells; assay: Effect of short chain fatty acids on proliferation and differentiation on planar crypt arrays; type: cell-based; conditions: day 3-4 (DM/EM); for ALP activity relative to the control / normalized area of EdU+ cells compared to control without short chain fatty acid: 24 mM acetate, 6 mM propionate or 1 mM butyrate in DM luminal medium; for ALP activity relative to the control: ALP+ area normalized to Hoechst 33342 area; for normalized area of EdU+ cells compared to control without short chain fatty acid: EdU+ area normalized to Hoechst 33342 area
# Description: EM was replaced with fresh EM every 2 days. The cells were sub-cultured every 3-5 days by degrading collagen with collagenase and dissociating the cells with 0.5 mM EDTA into clumps of cells. […] When placing cells onto the surface of the microdevice, the cell suspension was diluted 1 to 2 in EM and overlaid onto the microdevice surface. The cells were cultured for 2 days with EM placed into the luminal and basal reservoirs of the Transwell cassette. On day 2, the luminal and basal media were changed as described in Table 3, below, and the cells incubated for a day. On day 3, the luminal and basal media were replaced with fresh media (identical to that from day 2 replacement) and the cells incubated for another day. In some experiments, the medium in the luminal compartment was replaced differentiation medium (DM, see Table 2) which is similar to EM but lacking in key growth factors required to support intestinal stem cells.
# Cells in the S phase of the cell cycle were incubated with a pulse of 5-ethynyl-2′-deoxyuridine (EdU) pulse following the manufacturers' protocols (Click-iT EdU Alexa Fluor 647 Imaging kit, C10340, Thermo Fisher Scientific, Waltham, Massachusetts, United States of America). EdU is a nucleotide analog incorporated into DNA as it is replicated in S phase. In brief, EdU (10 μM) was added to the luminal and basal media and the cells were incubated for 3 h at 37° C. The cells then were washed with PBS and fixed with 4% paraformaldehyde in PBS for 15 min and permeabilized with 0.5% Triton-X for 20 min at 25° C. EdU incorporated into cellular DNA was visualized by reaction with Alexa 647 via click chemistry following the manufacturer's protocol (Click-iT EdU Alexa Fluor 647 Imaging kit, C10340, Thermo Fisher Scientific, Waltham, Massachusetts, United States of America).
# Cell monolayers were assayed for alkaline phosphatase (ALP) activity on day 4 of culture by incubation with ALP substrate mixture (Vector Red AP substrate kit, SK-5100, Vector Laboratories Inc., Burlingame, California, United States of America) in Tris buffer (pH 8.4) for 30 min at 37° C. Then cells were washed with PBS, fixed and permeabilized as described above. To label cell DNA, Hoechst 33342 (2 μg/mL, B2261, Sigma Aldrich, St. Louis, Missouri, United States of America) was incubated with cells (1 h, 25° C.).
# The […] ® insert (Corning, Inc., Corning, New York, United States of America) with cell layer from the microdevice was placed into a 12-well plate under PBS and imaged using a FLUOVIEW® FV3000® confocal microscope (Olympus Corporation, Tokyo, Japan) confocal microscope (10×, objective, numerical aperture of 0.4). Alexa 647, Vector-Red-ALP, and Hoechst 33342 were excited with a 640, 561, and 405 nm laser, respectively and the fluorescence emission was collected at 650-750 nm, 570-590 nm, and 430-470 nm, respectively. The images were analyzed with the Fiji software package. […] For all experiments, the numbers of sample sizes were estimated using a statistical power analysis based on the data from Wang et al. (Cellular and Molecular Gastroenterology and Hepatology, 2017, 4, 165-182) measuring EdU+ and ALP activities under varying conditions (α=0.05, β=0.85) using G*Power. […] A one-way ANOVA analysis was used for all statistical analyses of data obtained from the fluorescence microscopy images.
# [2] = test system: intestinal tumor cell lines; conditions: cited from earlier work
SMILES,ALP activity relative to the control [1],normalized area of EdU+ cells compared to control without short chain fatty acid [1],"decrease of the number of Hoechst 33342+ cells per crypt ([1]; 1 mM butyrate in DM luminal medium, vs control crypts, p<0.001)",proliferation in intestinal tumor cell lines [2]
CC(=O)O [acetate],significantly decreased,significantly increased,–,–
CCCC(=O)O [butyrate],–,–,about 17%,–
CCC(=O)O [propionate],significantly increased,significantly decreased,–,suppress proliferation
